Laboratory results as given in patent publication US9012427B2, “Pharmaceutical combinations comprising a thionucleotide analog” (Alios BioPharma, Inc., priority 2012, dated 2015).
Read-outs that look alike come from different tables or passages of the source.

Test system: genotype 1b replicon carrying the firefly luciferase reporter
Experiment: HCV replicon in vitro combination assay, dual and triple combination (Example 1)
Assay type: cell-based
Conditions: Hepatitis C virus, 72 h, read-out: Individual IC50 values
Method: All compounds were dissolved in 100% DMSO (dimethyl sulfoxide) to a stock concentration of 10 mM and stored at −20° C. Serial 2-fold or 3-fold dilution series of compounds were prepared in 100% DMSO at 400-fold of the final concentration to be used in cell culture experiments that would result in a final DMSO concentration of 0.25% in growth medium.
Drug combination studies were carried out using the transient replicon system. On day one, in vitro transcribed RNA of a genotype 1b replicon carrying the firefly luciferase reporter was transfected into Huh-7-ET-cured cells using Minis transfection reagent. (Lohmann V et al., “Replication of subgenomic hepatitis C virus RNAs in a hepatoma cell line” Science (1999) 285(5424):110-113, which is hereby incorporated by reference in its entirety) Ten thousand transfected cells were cultured in complete DMEM medium [DMEM medium supplemented with 2 mM L-glutamine, 1× non-essential amino acids, 10% heat inactivated FBS and PenStrep (100 units/mL penicillin and 100 ug/mL streptomycin)] in the central 60 wells of 96-well, flat bottom, tissue culture treated plates and cultured at 37° C./5% CO2 humidified incubator for 24 h. The next day, compounds were serially diluted (2× or 3× dilution series) in 100% DMSO, mixed together in a checkerboard fashion and added to cells, and the plates were returned to the incubator for an additional 72 h. […] At the end of the incubation, cells from one set of the plates were lysed and the luciferase activity was measured using a luciferase assay kit. […]
The effects of dual combinations were evaluated using the Bliss independence model. (Greco et al., “The search for synergy: a critical review from a response surface perspective” Pharmacol. Rev. (1995) 47(2):331-385, which is hereby incorporated by reference in its entirety) The experimental data (RLU) was analyzed by using MacSynergy, a three-dimensional analytical method developed by Prichard and Shipman. […] The volume of the peak or depression is calculated to quantify the overall synergy or antagonism produced.

[1] = single compound, genotype 1b transient replicon in Huh-7-ET-cured cells, n = 3

Row | SMILES | IC50 | IC50 [1]
1 | CC(C)OC(=O)[C@H](C)N[P@](=S)(OC[C@H]1O[C@@H](n2ccc(=O)[nH]c2=O)[C@](C)(O)[C@@H]1O)Oc1ccccc1 [Compound 1004] | 357 nM | –
2 | COc1ccc2c(O[C@@H]3C[C@H]4C(=O)N[C@]5(C(=O)NS(=O)(=O)C6CC6)C[C@H]5/C=C\CCCCN(C)C(=O)[C@@H]4C3)cc(-c3nc(C(C)C)cs3)nc2c1C [Compound 3013, TMC-435] | – | 2.1 nM
3 | COC(=O)N[C@H](C(=O)N1CCC[C@H]1c1ncc(-c2ccc(-c3ccc(-c4cnc([C@@H]5CCCN5C(=O)[C@@H](NC(=O)OC)C(C)C)[nH]4)cc3)cc2)[nH]1)C(C)C [Compound 3043, Daclatasvir] | – | 0.0114 nM
